Where a name gives a salt, the structure may show the parent alone.
Experiments:
rats [1] = assay: LD50, single oral dose administered to rats; conditions: orally administered to rats; versus sodium chloride
rats [2] = conditions: orally administered to rats; cited from earlier work

C[N+](C)(C)CC(=O)[O-] [glycine betaine, 1-carboxy-N,N,N-trimethylmethanaminium inner salt]
toxicity relative to ordinary table salt, as reflected by the oral rat LD50 (rats [1]): more than three times less toxic
LD50 (rats [2]): about 11,204 mg per kilogram of rat body we

From patent US6602824B1, “Herbicidal composition and a method of using a naturally-occurring organic compound as a herbicide” (Greener Pastures Development Corp., priority 1999, dated 2003)
